The test system of one assay is MiaPaCa-2. In words: IC50 concentration by MTT colorimetric assay. Type of assay: cell-based, human. On the procedure:
(§1) MiaPaCa-2 and PANC-1 cells were trypsinized, washed, and incubated overnight in a humidified incubator. Each condition was performed in quadruplicate with 3×10^3 cells/well on a 96-well flat bottom plate. […] After drug treatment, 15 μL of the MTT dye solution was added to each well and incubated for 4 hours in a humidified incubator. The reaction was stopped by adding 100 μL of solubilization solution and the plate was incubated for an additional hour at room temperature. The wells were mixed and the absorbance was measured at 570 nm using a Synergy HTX Plate Reader. The % inhibition was calculated using the following equation: […]

The test system of the next assay is L3.6. In words: IC50 concentration in L3.6 cells. The class given is cell-based.
The next assay concerns Pancreatic cancer (PC). As to conditions: advanced or recurrent disease patients; cited from earlier work.
Another assay concerns BxPC-3 cells. In words: IC50 concentration in BxPC-3 cells. Type of assay: cell-based.
For a further assay, the system named is CFPAC cells. Nature of the assay: IC50 concentration in CFPAC cells. Type of assay: cell-based.
The test system of another assay is PANC-1. Nature of the assay: IC50 concentration by MTT colorimetric assay. Type of assay: cell-based, human. As for the experimental part:
as §1

Like-named read-outs stand apart in the source and are kept apart here.

`Nc1ccn([C@@H]2O[C@H](CO)[C@@H](O)C2(F)F)c(=O)n1` [Gem, gemcitabine]: the IC50 in the assay with MiaPaCa-2 (Homo sapiens, MIA PaCa-2, MiaPaCa-2, 72 hours treatment, MTT) was 15.6 µM; in the assay with L3.6, 12 µM. Besides, the median survival in the assay with Pancreatic cancer (PC) was 6.7 months.
Take `O=c1[nH]cc(F)c(=O)[nH]1` [5FU, 5 fluorouracil]: the IC50 was 14.6 µM in the assay with BxPC-3 cells (Homo sapiens); 5 µM with CFPAC cells (no unit printed at b33, read-out: IC50 dose); 5 µM with CFPAC cells (read-out: IC50 concentration).
In the case of `N.N.[Cl][Pt][Cl]` [CIS, cisplatin], the IC50 with MiaPaCa-2 (MiaPaCa-2, 72 hours treatment, MTT) amounted to 18.6 µM; with MiaPaCa-2 (MiaPaCa-2, no unit printed at b274), 18.6 µM; in the assay on PANC-1 (PANC-1, 72 hours treatment, MTT), 14 µM; in the assay with PANC-1 (PANC-1, no unit printed at b274), 14 µM; in the assay with BxPC-3 cells it was 6.9 µM; in the assay on CFPAC cells (read-out: IC50 concentration) it was 10 µM. The compound also registered an IC50 in the assay on L3.6 of 16 µM.

The record behind these values is patent US20220175836A1, “PRIMING WITH TARGETED ACTIVATED T CELLS CAN ENHANCE CHEMO RESPONSIVENESS OF CANCER CELLS” (University of Virginia Patent Foundation, priority 2019, published 2022).
